According to article PMC5021961, “Generation of self-clusters of galectin-1 in the farnesyl-bound form” (Scientific Reports, 2016):

Biological target: T1, human galectin-1 (Gal-1) (Homo sapiens, UniProt P09382)
T1 construct: gene LGALS1
Assay: Trp68 fluorescence titration (equilibrium fit with Hill coefficient […]), fluorescence lifetime, UV resonance Raman, CD, native PAGE self-clustering
Type: binding

T1 sequence (P09382 2-135): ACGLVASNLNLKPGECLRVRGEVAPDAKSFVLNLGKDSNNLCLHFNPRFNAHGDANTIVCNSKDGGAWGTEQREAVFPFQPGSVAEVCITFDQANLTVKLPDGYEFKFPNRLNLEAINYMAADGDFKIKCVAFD

- Kd: ~2300 nM
Compound: CC(C)=CCC/C(C)=C/CC/C(C)=C/CSc1ccccc1C(=O)O [FTS, farnesyl thiosalicylic acid]
